The source of these data is patent publication US10980231B2, “Insect repellent” (Kao Corporation, priority 2015, dated 2021).

System in the first data set: not given
Assay: not given
The conditions noted are these: cited from earlier work.
For `CCN(CC)C(=O)c1cccc(C)c1` [DEET, N,N-diethyl-3-methylbenzamide], the skin permeability entry was “high skin permeability”.

A further data set relates to Asian tiger mosquito. The data set can be described thus: Evaluation of inhibition of seeking behavior of mosquito for human arm (landing count). The class given is in vivo. Also noted: tested at 0.1 vol %. The conditions noted are these: sample 0.1 vol % in ethanol on breathable sheet on arm; landings in 5 minutes vs ethanol only; female mosquitoes. The procedure:
Mosquitoes were prepared for evaluation in the same manner as in Example 1. Approximately 150 to 200 female Asian tiger mosquitoes were transferred in a plastic cage (30×30×30 cm). […] The other three sides were covered with a net, preventing a smell from remaining in the box. A breathable sheet for disposable diapers (air permeance (JIS P8117): 2 sec/300 mL·32 sheets or higher, water vapor transmission rate (JIS Z0208): 1 g/100 cm^2·1 hr or higher) was cut into a size of 6 cm×6 cm, and the resultant was fixed with a tape to the inner side of a Qualatex glove (AS ONE 8-4053-02) cut in 5 cm×5 cm, and […] of an evaluation sample, the concentration of which had been adjusted to 0.1 vol % with ethanol, was uniformly applied onto the breathable sheet. After the application, the resultant was left to stand for approximately 5 minutes, and the attraction test was conducted. The arm was covered with the Qualatex glove provided with the breathable sheet, and inserted in the plastic cage. After the insertion, the number of mosquitoes which landed on the breathable sheet in 5 minutes was counted. In the case that a mosquito landed a plurality of times, all of the landings were counted. In view of the influence of a sample on the mosquitoes, the test was conducted just four times in one cage, and the cage was then replaced with another cage and other mosquitoes were used for the subsequent tests. The inhibitory rate relative to the number of landings with application of ethanol solvent only was calculated to determine the inhibitory effect. Inhibitory rate (%)=100×(1−[number of landings with application of sample]/[number of landings with application of ethanol]) (Equation 2)
As to `C=CCCCCCCCCO` [9-Decen-1-ol, 9-decen-1-ol], the “Inhibitory rate (%)” value was 93.5%.
Regarding `CCOC(=O)C(C)C1CCCCC1` (centres unmarked) [Ethyl 2-cyclohexylpropionate, ethyl 2-cyclohexylpropionate], the “Inhibitory rate (%)” value stood at 58%.
Take `CCCc1ccc(O)c(OC)c1` [2-Methoxy-4-propylphenol, 2-methoxy-4-propylphenol]: the “Inhibitory rate (%)” value is listed as 100%.
Same read-out and setting: with `CCC/C=C/COC(C)=O` [trans-2-Hexenyl acetate, trans-2-hexenyl acetate] the figure was 54%.
Regarding `CCCCC(CC)C(=O)OCC` (centres unmarked) [Ethyl 2-ethylhexanoate, ethyl 2-ethylhexanoate], the “Inhibitory rate (%)” value was 66%.
On to `CCOC(=O)Cc1ccccc1` [Ethyl phenylacetate, ethyl phenylacetate], for which the “Inhibitory rate (%)” value is recorded as 38.5%.
The same measure, in the same setting: with `CCCCCCCCCCO` [1-Decanol, 1-decanol] the figure was 97.5%; with `C=CC(O)CCCCC` (centres unmarked) [1-Octen-3-ol, 1-octen-3-ol], 70.5%; with `CC1=CC(C)C(CO)C(C)C1` (centres unmarked) [2,4,6-Trimethyl-3-cyclohexene-1-methanol, 2,4,6-trimethyl-3-cyclohexene-1-methanol], 89%.

Another data set deals with insects.
Assay: not given
The settings on record: repellent use; cited from earlier work.
On to `CCN(CC)C(=O)c1cccc(C)c1` [DEET, N,N-diethyl-3-methylbenzamide], for which the duration is 2 to 3 h.
